Measured values: patent publication US20250295648A1 (priority 2024, published 2025)
Several values for one entry are separate records, joined by “and”; a condition that tells them apart may be missing. Identical values can stand only once.

Experiments:
[1] = tested on: Parkinson's disease symptoms in PD patients with LID; assay: Unified Parkinson's Disease Rating Scale (UPDRS); conditions: for UPDRS Part 3 score (motor disability), change from baseline: p=0.0072 vs baseline
Protocol: Patients were rated for dyskinesia at baseline and on days 28 (at end of up-titration period) and 42 (end of stable dosing period). Because the level of dyskinesia experienced by patients can vary over time, they were given 150% (i.e., 1.5×) of their regular L-DOPA dose (up to a maximum of 250 mg) as a challenge 30 min before each dyskinesia assessment to improve comparability between patients and between visits. Patients were filmed 30, 60 and 90 min after dosing with L-DOPA (˜5 min of filming each time). LID was assessed using the Unified Dyskinesia Rating Scale (UDysRS). Changes from baseline are shown for total score (i.e., Parts 1 to 4), for total objective score (i.e., Parts 3+4), and for the sum of Part 3 objective impairment assessment scores. Because objective LID assessment was carried out at 3 time-points (30, 60 and 90 min) following L-DOPA challenge, the above parameters were analyzed based on the most severe of the three scores as well as on the average score of the 3 time points. PD symptoms were assessed by Unified Parkinson's Disease Rating Scale (UPDRS) 30-90 min after the 150% L-DOPA challenge (i.e., when the patient was ON). Changes from baseline are shown for total score (i.e., Parts 1 to 4) and individual scores for each Part, 1, 2, 3 and 4.
The UPDRS consists of 4 parts: • v. Part I assesses non-motor experiences of daily living, such as cognitive impairment and depressed mood. • w. Part II assesses motor experiences of daily living, such as speech and eating tasks. • x. Part III is a motor examination conducted by the clinician, including assessments of symptoms such as rigidity and tremor. • y. Part IV is an assessment of motor complications, such as time spent with dyskinesia and functional impact of dyskinesias.
Each item in the UPDRS is scored from 0 to 4, and the individual scores are summed to give a total score that indicates the severity of the disease, with a score of 0 indicating no disability and a score of 199 being the most severe (indicating total disability).
Change from baseline in UPDRS combined scores (Parts I, II, III and IV) to Visit 6 (Day 28) and Visit 7 (Day 42) respectively would be summarized using descriptive statistics. […] The same analysis would be done for UPDRS Part III only.
The baseline value of the dependent variable has been included in the model as a continuous covariate. Kenward-Roger's improved approximation for degrees of freedom (2009) has been used; ^b)=p-value for the difference between NLX-112 at the assessment timepoint and at baseline; ^c)=p-value for the difference between placebo at the assessment timepoint and at baseline; ^d)=p-value for the difference between NLX-112 and placebo absolute change from baseline at the assessment timepoint.

MPTP-treated marmosets = conditions: in vivo; cited from earlier work
striatal 5-HT release = conditions: rat, in vivo; cited from earlier work
PD patients with LID [2] = assay: Parkinson's Disease Questionnaire (PDQ39); format: in vivo, human; conditions: for PDQ39, mean change from baseline: per-protocol set
Source text: The PDQ39-item patient reported outcome of health status and quality of life and is the most frequently used disease-specific health status measure for PD. The questionnaire assesses how often people affected by PD experience difficulties across 8 dimensions of daily living. The standard PDQ39 assesses quality of life over the previous month. In this study the initial time period assessed at the Baseline Visit would be the previous month, with subsequent assessments for the intervening period since the last clinic visit (about 3 weeks). The 8 quality of life dimensions covered in the questionnaire are: • gg. Mobility (10 items #1-10) • hh. ADL (6 items #11-16) • ii. Emotional Well Being (6 items #17-22) • jj. Stigma (4 items #23-26) • kk. Social Support (3 items #27-29) • ll. Cognition (4 items #30-33) • mm. Communications (3 items #34-36) • nn. Bodily Discomfort (3 items #37-39) Individual items are rated by the patient on a scale of […]. Dimension scores are calculated on a scale of 0 to 100. The total score and individual dimension scores would be assessed for change from baseline.

[3] = tested on: L-DOPA-induced dyskinesia in rat; conditions: 2-week treatment period; cited from earlier work
PD patients with LID [4] = assay: Epworth Sleepiness Scale (ESS); format: in vivo, human; conditions: for ESS, mean change from baseline: per-protocol set
Source text: The ESS is a self-administered questionnaire with 8 questions. Respondents are asked to rate, on a 4-point scale (0-3), their usual chances of dozing off or falling asleep while engaged in 8 different activities. The ESS score (the sum of 8 item scores, 0-3) can range from 0 to 24. Ratings are based on the previous month, or in the case of this study, the intervening period since the previous clinic visit (about 3 weeks).

[5] = 5 patients co-treated with amantadine
[6] = Full analysis set, Visit 2 Baseline
[7] = Full analysis set, Visit 6 Clinic Efficacy Visit
[8] = Full analysis set, Visit 7 Clinic Efficacy Visit
[9] = Full analysis set, Visit 9 Follow-up Clinic Visit
[10] = Visit 2 Baseline, per protocol analysis set, N = 15
[11] = Visit 6 Clinic Efficacy Visit (Day 28), per protocol analysis set, N = 15
[12] = Visit 7 Clinic Efficacy Visit (Day 42), per protocol analysis set, N = 15
[13] = Visit 9 Follow-up Clinic Visit, per protocol analysis set, N = 15
[14] = individual patients A-E co-treated with amantadine
[15] = per-protocol set (n = 15), Baseline
[16] = per-protocol set, Δ D 28 (end of up-titration), p < 0.05 vs baseline
[17] = per-protocol set, Δ D 42 (end of stable dosing)
[18] = per-protocol set, Δ D 42 (end of stable dosing), p < 0.01 vs baseline

Compound: Cc1ccc(CNCC2(F)CCN(C(=O)c3ccc(F)c(Cl)c3)CC2)nc1 [NLX-112, (3-chloro-4-fluoro-phenyl)-[4-fluoro-4-{[(5-methyl-pyridin-2-ylmethyl)-amino]-methyl}piperidin-1-yl]methanone]
- UPDRS Part 3, mean change from baseline [1, 5]: −4.2
- UPDRS Total, mean change from baseline [1, 5]: −6.6
- UPDRS Part 2 (motor experiences of daily living), vs baseline ([1]; Day 28): statistically significant reduction
- UPDRS total score (Parts 1-4), change from baseline ([1]; Day 28, PPS, p=0.0005 vs baseline): −6.5 points
- UPDRS Part 3 score (motor disability), change from baseline ([1]; Day 28, PPS): −3.7 points
- UPDRS total score (Parts 1-4), change from baseline ([1]; Day 42, PPS, p=0.0021 vs baseline): −5.7 points
- UPDRS Part 3 score (motor disability), change from baseline ([1]; Day 42, PPS): −3.7 points
- UPDRS total score absolute change from baseline, NLX-112 vs placebo ([1]; Days 28 or 42): no significant differences
- UPDRS Part 3 Motor Total, collected value, mean [1, 6]: 17.8
- UPDRS Part 3 Motor Total, collected value, median [1, 6]: 16.0
- UPDRS Total Score (all Parts), collected value, Mean [1, 6]: 38.3
- UPDRS Total Score (all Parts), collected value, Median [1, 6]: 37.5
- UPDRS Part 3 Motor Total, absolute change from baseline, mean [1, 7]: −3.7
- UPDRS Part 3 Motor Total, absolute change from baseline, median [1, 7]: −4.0
- UPDRS Part 3 Motor Total, collected value, mean [1, 7]: 13.9
- UPDRS Part 3 Motor Total, collected value, median [1, 7]: 14.0
- UPDRS Part 3 Motor Total, relative change from baseline (%), mean [1, 7]: −21.8%
- UPDRS Part 3 Motor Total, relative change from baseline (%), median [1, 7]: −21.4%
- UPDRS Total Score (all Parts), absolute change from baseline, Mean [1, 7]: −6.5
- UPDRS Total Score (all Parts), absolute change from baseline, Median [1, 7]: −5.0
- UPDRS Total Score (all Parts), collected value, Mean [1, 7]: 30.5
- UPDRS Total Score (all Parts), collected value, Median [1, 7]: 29.0
- UPDRS Total Score (all Parts), relative change from baseline (%), Mean [1, 7]: −17.4%
- UPDRS Total Score (all Parts), relative change from baseline (%), Median [1, 7]: −15.2%
- UPDRS Part 3 Motor Total, absolute change from baseline, mean [1, 8]: −3.7
- UPDRS Part 3 Motor Total, absolute change from baseline, median [1, 8]: −4.0
- UPDRS Part 3 Motor Total, collected value, mean [1, 8]: 13.9
- UPDRS Part 3 Motor Total, collected value, median [1, 8]: 14.0
- UPDRS Part 3 Motor Total, relative change from baseline (%), mean [1, 8]: −21.5%
- UPDRS Part 3 Motor Total, relative change from baseline (%), median [1, 8]: −33.3%
- UPDRS Total Score (all Parts), absolute change from baseline, Mean [1, 8]: −5.7
- UPDRS Total Score (all Parts), absolute change from baseline, Median [1, 8]: −5.0
- UPDRS Total Score (all Parts), collected value, Mean [1, 8]: 31.3
- UPDRS Total Score (all Parts), collected value, Median [1, 8]: 30.0
- UPDRS Total Score (all Parts), relative change from baseline (%), Mean [1, 8]: −15.7%
- UPDRS Total Score (all Parts), relative change from baseline (%), Median [1, 8]: −19.2%
- UPDRS Part 3 Motor Total, absolute change from baseline, mean [1, 9]: −2.7
- UPDRS Part 3 Motor Total, absolute change from baseline, median [1, 9]: −2.0
- UPDRS Part 3 Motor Total, collected value, mean [1, 9]: 14.8
- UPDRS Part 3 Motor Total, collected value, median [1, 9]: 13.0
- UPDRS Part 3 Motor Total, relative change from baseline (%), mean [1, 9]: −11.2%
- UPDRS Part 3 Motor Total, relative change from baseline (%), median [1, 9]: −14.3%
- UPDRS Total Score (all Parts), absolute change from baseline, Mean [1, 9]: −4.4
- UPDRS Total Score (all Parts), absolute change from baseline, Median [1, 9]: −3.0
- UPDRS Total Score (all Parts), collected value, Mean [1, 9]: 32.6
- UPDRS Total Score (all Parts), collected value, Median [1, 9]: 31.0
- UPDRS Total Score (all Parts), relative change from baseline (%), Mean [1, 9]: −9.57%
- UPDRS Total Score (all Parts), relative change from baseline (%), Median [1, 9]: −11.5%
- UPDRS Part 3 Motor Total, collected value, mean [1, 10]: 17.5
- UPDRS Part 3 Motor Total, collected value, median [1, 10]: 17.0
- UPDRS Total Score, collected value, mean [1, 10]: 37.0
- UPDRS Total Score, collected value, median [1, 10]: 36.0
- UPDRS Part 3 Motor Total, absolute change from baseline, mean [1, 11]: −3.7
- UPDRS Part 3 Motor Total, absolute change from baseline, median [1, 11]: −4.0
- UPDRS Part 3 Motor Total, collected value, mean [1, 11]: 13.9
- UPDRS Part 3 Motor Total, collected value, median [1, 11]: 14.0
- UPDRS Part 3 Motor Total, relative change from baseline (%), mean [1, 11]: −21.8%
- UPDRS Part 3 Motor Total, relative change from baseline (%), median [1, 11]: −21.4%
- UPDRS Total Score, absolute change from baseline, mean [1, 11]: −6.5
- UPDRS Total Score, absolute change from baseline, median [1, 11]: −5.0
- UPDRS Total Score, collected value, mean [1, 11]: 30.5
- UPDRS Total Score, collected value, median [1, 11]: 29.0
- UPDRS Total Score, relative change from baseline (%), mean [1, 11]: −17.4%
- UPDRS Total Score, relative change from baseline (%), median [1, 11]: −15.2%
- UPDRS Part 3 Motor Total, absolute change from baseline, mean [1, 12]: −3.7
- UPDRS Part 3 Motor Total, absolute change from baseline, median [1, 12]: −4.0
- UPDRS Part 3 Motor Total, collected value, mean [1, 12]: 13.9
- UPDRS Part 3 Motor Total, collected value, median [1, 12]: 14.0
- UPDRS Part 3 Motor Total, relative change from baseline (%), mean [1, 12]: −21.5%
- UPDRS Part 3 Motor Total, relative change from baseline (%), median [1, 12]: −33.3%
- UPDRS Total Score, absolute change from baseline, mean [1, 12]: −5.7
- UPDRS Total Score, absolute change from baseline, median [1, 12]: −5.0
- UPDRS Total Score, collected value, mean [1, 12]: 31.3
- UPDRS Total Score, collected value, median [1, 12]: 30.0
- UPDRS Total Score, relative change from baseline (%), mean [1, 12]: −15.7%
- UPDRS Total Score, relative change from baseline (%), median [1, 12]: −19.2%
- UPDRS Part 3 Motor Total, absolute change from baseline, mean [1, 13]: −2.7
- UPDRS Part 3 Motor Total, absolute change from baseline, median [1, 13]: −2.0
- UPDRS Part 3 Motor Total, collected value, mean [1, 13]: 14.8
- UPDRS Part 3 Motor Total, collected value, median [1, 13]: 13.0
- UPDRS Part 3 Motor Total, relative change from baseline (%), mean [1, 13]: −11.2%
- UPDRS Part 3 Motor Total, relative change from baseline (%), median [1, 13]: −14.3%
- UPDRS Total Score, absolute change from baseline, mean [1, 13]: −4.4
- UPDRS Total Score, absolute change from baseline, median [1, 13]: −3.0
- UPDRS Total Score, collected value, mean [1, 13]: 32.6
- UPDRS Total Score, collected value, median [1, 13]: 31.0
- UPDRS Total Score, relative change from baseline (%), mean [1, 13]: −9.57%
- UPDRS Total Score, relative change from baseline (%), median [1, 13]: −11.5%
- reduction in UPDRS Part 3 score, more than placebo ([1]; day 42): 3.9 points
- UPDRS Part 1 (non-motor experiences of daily living), vs baseline ([1]; days 28 and 42): no statistically significant changes from baseline
- UPDRS Part IV (motor complications), vs baseline ([1]; days 28 and 42): significant reduction
- UPDRS Part 3, Δ from baseline [1, 14]: −9 and −13 and +3 and +2 and −4
- UPDRS Total, Δ from baseline [1, 14]: −15 and −11 and −5 (2×) and +3
- patients on NLX-112 and amantadine with numerical reductions in PD symptoms (UPDRS) ([1]; of the 5 patients): 4
- UPDRS Part 1, mean [1, 15]: 1.0
- UPDRS Part 2, mean [1, 15]: 10.7
- UPDRS Part 3, mean [1, 15]: 17.5
- UPDRS Part 4, mean [1, 15]: 8.0
- UPDRS Total (Parts 1 to 4), mean [1, 15]: 37.0
- UPDRS Part 1, mean change from baseline ([1]; per-protocol set, Δ D 28 (end of up-titration)): 0.2
- UPDRS Total (Parts 1 to 4), mean change from baseline ([1]; per-protocol set, Δ D 28 (end of up-titration), p < 0.001 vs baseline): −6.5
- UPDRS Part 3, mean change from baseline ([1]; per-protocol set, Δ D 28 (end of up-titration), p < 0.01 vs baseline, p < 0.05 vs placebo): −3.7
- UPDRS Part 2, mean change from baseline [1, 16]: −2.1
- UPDRS Part 4, mean change from baseline [1, 16]: −0.9
- UPDRS Part 1, mean change from baseline [1, 17]: 0.1
- UPDRS Part 2, mean change from baseline [1, 17]: −1.2
- UPDRS Part 3, mean change from baseline [1, 18]: −3.7
- UPDRS Total (Parts 1 to 4), mean change from baseline [1, 18]: −5.7
- UPDRS Part 4, mean change from baseline ([1]; per-protocol set, Δ D 42 (end of stable dosing), p < 0.05 vs baseline): −0.9
- disability scores (MPTP-treated marmosets): reduces disability scores
- striatal 5-HT release and dopamine surge following L-DOPA (striatal 5-HT release): inhibited striatal 5-HT release and blunted the ‘dopamine surge’
- quality of life (PDQ39 score) (PD patients with LID [2]; Days 28 or 42): no consistent statistically significant effect
- PDQ39, mean (PD patients with LID [2]; [15]): 18.7
- PDQ39, mean change from baseline (PD patients with LID [2]; Δ D 28 (end of up-titration)): −1.5
- PDQ39, mean change from baseline (PD patients with LID [2]; Δ D 42 (end of stable dosing)): −0.6
- antidyskinetic efficacy against L-DOPA-induced dyskinesia [3]: did maintain its antidyskinetic efficacy
- sleepiness (ESS) (PD patients with LID [4]; Days 28 or 42): no consistent statistically significant effect
- ESS, mean (PD patients with LID [4]; [15]): 8.3
- ESS, mean change from baseline (PD patients with LID [4]; Δ D 28 (end of up-titration)): −1.1
- ESS, mean change from baseline (PD patients with LID [4]; Δ D 42 (end of stable dosing)): −0.9
